Experimental data: PubChem BioAssay AID2305 (GlaxoSmithKline (GSK), 2010)

The molecules below were run on P. falciparum 3D7 growth, pLDH absorbance (assay: P. falciparum 3D7 growth inhibition, dose response, strain 3D7 (AID 2305)).

**Q.** How did the IC50 turn out when `CCOc1cc(CC)ccc1C1CCN(CCCCNC(=O)c2ccc(NC(=O)c3ccc(Cl)cc3)cc2)CC1` was run?
**A.** 740 nM

**Q.** How did the IC50 turn out when `CC(C)(C)c1ccc(CN2CCC(CNC(=O)c3cc(-c4ccccc4F)cs3)C2)cc1` (stereo not drawn) was run?
**A.** 560 nM

**Q.** `COc1cccc(Nc2c(C(N)=O)cnc3ccc(-c4ccc(S(C)=O)cc4)cc23)c1` (stereo not drawn) was tested. Which IC50 did it give?
**A.** 190 nM

**Q.** How did the IC50 turn out when `O=C(COc1ccc(Cl)c(Cl)c1)NCCCCCN1CCCN(C(=O)Nc2cc(Cl)cc(Cl)c2)CC1` was run?
**A.** 1140 nM

**Q.** How did the IC50 turn out when `Cc1ccc(CNC(=O)[C@H](CCCN)Nc2cc(C)nc(NCC3CCCCC3)n2)cc1` was run?
**A.** 1220 nM

**Q.** `Cc1ccc2nc(-c3cc(-c4cccc(CCN5CCOCC5)c4)cnc3N)[nH]c2c1` was tested. Which IC50 did it give?
**A.** 170 nM

**Q.** `O=C(Nc1ccc(Cl)c(C(F)(F)F)c1)Nc1ccc(Cl)c(C(F)(F)F)c1` was tested. Which IC50 did it give?
**A.** 770 nM

**Q.** For `NC1CCN(c2nc(NCCc3ccc(O)cc3)nc(NCc3ccccc3-c3ccccc3)n2)CC1`, which IC50 is on record?
**A.** 820 nM

**Q.** For `Cc1ccc(Cc2cnc(NCCSCc3ccc(CN(C)C)s3)[nH]c2=O)cn1`, which IC50 is on record?
**A.** 860 nM

**Q.** `Cc1ccc(C)c(CN2CCC(CNC(=O)c3cc4ccc5cccnc5c4[nH]3)CC2)c1` was tested. Which IC50 did it give?
**A.** 990 nM

**Q.** With `CCOc1cc(C)ccc1N1CCN(CCN2CCC(NC(=O)c3ccc(-c4ccc(C#N)cc4)cc3)CC2)CC1` as the molecule, how does the IC50 read?
**A.** 1430 nM

**Q.** `N#Cc1ccc2c(c1)CN(CCC1CCC(NC(=O)c3cc4cnccc4[nH]3)CC1)CC2` (stereo not drawn) was tested. Which IC50 did it give?
**A.** 800 nM

**Q.** With `Cc1cccc2[nH]c(-c3ccc(-c4ccc(CNCc5cnn(-c6ccccc6)n5)cc4)s3)nc12` as the molecule, how does the IC50 read?
**A.** 720 nM

**Q.** For `Nc1nc2c(ncn2COC2COP(=O)(O)OC2)c(=O)[nH]1` (stereo not drawn), which IC50 is on record?
**A.** 450 nM

**Q.** `COc1ccc2ncc(F)c(CCN3CC[C@@H](CNCc4nc5c(cc4C)SCC(=O)N5)C3)c2n1` was tested. Which IC50 did it give?
**A.** 1150 nM

**Q.** For `N=C(N)c1ccc(OCc2cccc(COc3ccc(C(=N)N)cc3I)c2)c(I)c1`, which IC50 is on record?
**A.** 340 nM

**Q.** How did the IC50 turn out when `C[C@@H](CC1CCCCC1)OC(=O)N[C@H]1CCN(C#N)C1` was run?
**A.** 870 nM

**Q.** With `N#Cc1ccc(-c2ccc(C(=O)NC3CCN(CCN4CCC(c5cn(CCO)c6ccccc56)CC4)CC3)cc2)cc1` as the molecule, how does the IC50 read?
**A.** 760 nM

**Q.** For `O=C(Nc1cccc(CN2CCN(Cc3ccc(O)cc3)CC2)c1)c1ccc(Cl)c(Cl)c1`, which IC50 is on record?
**A.** 250 nM

**Q.** `O=C(Nc1ccc(-c2ccc(-c3nc4ccccc4[nH]3)s2)cc1)c1ccncc1` was tested. Which IC50 did it give?
**A.** 790 nM

**Q.** For `O=C(CNC(=O)c1ccc(O)cc1)Nc1ccc(-c2cccc(-c3nc4ccc(C(F)(F)F)cc4[nH]3)c2)cc1`, which IC50 is on record?
**A.** 860 nM

**Q.** For `O=C(NCCCCN1CCC(c2c[nH]c3ccccc23)CC1)c1sc(-c2ccc(C(F)(F)F)cc2)nc1CO`, which IC50 is on record?
**A.** 1200 nM

**Q.** Which IC50 does the source give for `COc1cc(CCCOc2c(N)nc(N)nc2N)cc(OC)c1OC` here?
**A.** 1220 nM

**Q.** For `CCN1CCCC(CNC(=O)/C(=C/C=C/c2cc3cc(Cl)c(Cl)cc3[nH]2)OC)C1` (stereo not drawn), which IC50 is on record?
**A.** 890 nM

**Q.** With `CCOC(=O)C(=O)N1c2ccc(OCC)cc2-c2c(ssc2=S)C1(C)C` as the molecule, how does the IC50 read?
**A.** 220 nM

**Q.** How did the IC50 turn out when `Cc1cc(N[C@@H](CC(C)C)C(=O)Nc2ccccc2)nc(NCCc2ccc(F)cc2)n1` was run?
**A.** 1090 nM

**Q.** How did the IC50 turn out when `COc1cc2c(C3CCN(CC4CCC(NC(=O)/C=C/c5ccc(Cl)c(Cl)c5)CC4)CC3)c[nH]c2cn1` (stereo not drawn) was run?
**A.** 420 nM

**Q.** How did the IC50 turn out when `COc1ccc2c(Nc3ccc(N4CCN(C)CC4)cc3)cc(C)nc2c1` was run?
**A.** 720 nM

**Q.** Which IC50 does the source give for `CC(=O)Nc1csc(-c2cnc(/C=C(\C)C[C@@H]3OC[C@H](C[C@@H]4O[C@H]4[C@@H](C)[C@H](C)O)[C@@H](O)[C@H]3O)o2)c1` here?
**A.** 180 nM

**Q.** How did the IC50 turn out when `COc1ccc(OC)c(Cc2c(C)nc3nc(N)nc(N)c3c2C)c1` was run?
**A.** 860 nM

**Q.** Which IC50 does the source give for `CC(=O)N(Cc1nc(-c2cc(C(F)(F)F)cc(C(F)(F)F)c2)cs1)c1c(C)cccc1C` here?
**A.** 110 nM

**Q.** Which IC50 does the source give for `CCC[C@@H]([C@@H](CC(C)C)C(=O)N[C@@H](CCCCNC(=O)c1ccccn1)C(=O)Nc1nccs1)N(O)C=O` here?
**A.** 50 nM

**Q.** `CN1CCC(Oc2cc(NC(=O)Nc3ccc(-c4ccncc4)c(Cl)c3)ccc2Cl)CC1` was tested. Which IC50 did it give?
**A.** 530 nM

**Q.** `C=CCN(c1ccc(OC)cc1)S(=O)(=O)c1ccc(Cl)c(C(=O)Nc2cccc(C#N)c2)c1` was tested. Which IC50 did it give?
**A.** 580 nM

**Q.** For `COc1ccc(C(=O)NC2CCN(c3ccnc4cc(Cl)ccc34)C2)cc1` (stereo not drawn), which IC50 is on record?
**A.** 230 nM

**Q.** How did the IC50 turn out when `CCOC(=O)CCCc1cc(NC2CCN(C)CC2)nc(Nc2ccc(OC)cc2)n1` was run?
**A.** 700 nM

**Q.** Which IC50 does the source give for `CCOC(=O)N1NC(=O)N(c2ccccc2)C1(c1ccccc1)c1ccccc1` here?
**A.** 700 nM

**Q.** `COc1ccc(CNCC2CCC(CNCCc3ccccc3)CC2)cc1Cl` (stereo not drawn) was tested. Which IC50 did it give?
**A.** 790 nM

**Q.** `CC(C)CCN1CCC(Oc2ccc(NC(=O)c3ccccc3)cc2Cl)CC1` was tested. Which IC50 did it give?
**A.** 1300 nM

**Q.** With `Cc1c(CNCCCNc2nc3ccccc3[nH]2)[nH]c2cc(Cl)cc(Cl)c12` as the molecule, how does the IC50 read?
**A.** 230 nM

**Q.** For `COc1ccc2c(=O)ccn(CCN3CCC(NCc4ccc5c(n4)NC(=O)CS5)CC3)c2c1`, which IC50 is on record?
**A.** 230 nM

**Q.** `Cc1cccc2[nH]c(-c3ccc(-c4ccc(CN5CCCC(N)C5)cc4)s3)nc12` (stereo not drawn) was tested. Which IC50 did it give?
**A.** 380 nM

**Q.** With `COc1ccc(C2CCN(CCCNC(=O)c3ccc(NC(=O)c4ccc(Cl)cc4)cc3)CC2)c(OC)c1` as the molecule, how does the IC50 read?
**A.** 760 nM

**Q.** For `COc1cc(Nc2ccnc3cc(-c4nccs4)ccc23)ccc1OCCCc1nc2ccccc2[nH]1`, which IC50 is on record?
**A.** 240 nM

**Q.** How did the IC50 turn out when `O=C(NC1CCC(N2CCC(O)(c3ccc(F)cc3)CC2)CC1)c1cc2ccccc2[nH]1` (stereo not drawn) was run?
**A.** 740 nM

**Q.** With `CCOc1ccc2nc(NC(=O)c3csnn3)sc2c1` as the molecule, how does the IC50 read?
**A.** 480 nM

**Q.** `COc1ccc2ncc(F)c(CCN3C[C@H](CNCc4ccc5c(c4)OCCO5)[C@H](O)C3)c2n1` was tested. Which IC50 did it give?
**A.** 930 nM

**Q.** `Cc1cccc(Nc2nccc(Nc3cccc(C(=O)NCCN4CCOCC4)c3)n2)c1` was tested. Which IC50 did it give?
**A.** 1420 nM
